US20230277508A1, “USE OF COMPOUND AS CYP2E1 INHIBITOR” (SHANGHAI LING XI BIOTECHNOLOGY DEVELOPMENT CO., LTD., priority 2020, published 2023)

What was measured:
[1] = system: glioma cell line GL261 brain in situ transplanted tumor; assay: Mouse glioma model, in situ implantation of GL261 cells into the brain; assay type: in vivo, C57/BL6 mouse
Protocol: Experimental method: A female C57/BL6 mouse glioma model was constructed through in situ implantation of a glioma cell line GL261, with a cell concentration of 1*10^6. Experimental groups: sham-operated group (n=9); model group (n=10); temozolomide group (50 mg/kg, ig, n=11); SMI0 low-dose group (3.3 mg/kg, ig, n=13); SMI0 medium-dose group (10 mg/kg, ig, n=13); and SMI0 high-dose group (30 mg/kg, ig, n=13). The SMI0 intervention group was intragastrically administered with the compound SMI0 every day starting from three days before modeling, and the positive drug group was administered on day 3 to day 7 and day 10 to day 14 after surgery. The modeling took about 21 days. At the end of the experiment, blood was collected from the orbit, a body weight was measured, then the mice each were sacrificed, and brain tissues were collected. Brain tissue specimens were subjected to HE staining, and then the brain tissue lesion and tumorigenesis of mice in each group were observed.

[2] = system: LPS-induced pulmonary fibrosis in mice; assay: LPS-induced mouse pulmonary fibrosis model; assay type: in vivo, C57BL/6N mouse
Protocol: Experimental method: A C57BL/6N mouse pulmonary fibrosis model was established through intratracheal instillation with 8 mg/kg LPS. An SMI0 intervention group was divided into a low-dose group and a high-dose group, which were intragastrically administered with the compound SMI0 respectively at 30 mg/kg and 90 mg/kg every day from three days before modeling to the end of the 28-d modeling (control group, n=8; model group, n=8; and SMI0 compound high-dose group, n=8). At the end of the experiment, a body weight of mice in each group was recorded, blood was collected from the orbit, the mice were sacrificed, and lung tissues were collected and weighed. The left lungs were fixed in 4% formalin and subjected to HE and Masson staining, and the lung tissues were subjected to fibrosis grading and fibrosis and histological scoring to reflect a severity of pulmonary fibrosis.
Experimental method: An ammonium molybdate method and a microplate method were used to treat a mouse lung tissue homogenate, and changes of oxidative stress indexes CAT and GSH in the lung tissue of mice in each group were detected. Expression levels of […] and α-SMA in the mouse lung tissue were evaluated through immunohistochemical staining, and a positive area percentage was counted by Image-Pro Plus software. Expression levels of the epithelial cell marker E-cadherin, the apoptosis-associated protein Bax, and the anti-apoptotic protein Bcl-2 were detected by WB.

[3] = system: focal cerebral ischemia-reperfusion injury in rats; assay: Focal CIRI rat model with MCAO; assay type: in vivo
From the text: Experimental method: A focal CTRI rat model with middle cerebral artery occlusion (MCAO) was constructed by a modified Zea-longa suture-occluded method.

GL261 cells = assay: Direct effect on GL261 glioma cells in vitro; assay type: cell-based, murine
Protocol: Experimental method: GL261 murine glioma cells and U251 human glioma cells in a logarithmic growth phase each were selected and inoculated into a 96-well plate at a concentration of 5*10^5 cells/mL, then 100 μL of a cell suspension was added to each well, and 12 h later, a medium was discarded; 200 μL of a basic medium including SMI0 at different concentrations ([…]) was added to each well, […]; and the cells were further cultivated for 2 h, and an absorbance OD value of each well was determined at 450 nm by a microplate reader. 3 replicates were set for each well, and an average was taken. The proliferation activity was calculated based on the OD value.

[4] = system: CT26 cell lung metastasis; assay: Lung metastasis model, tail vein injection of CRC cell CT26; assay type: in vivo, Balb/C mouse; conditions: SMI0 30 mg/kg, 14 days
H22 liver cancer cells = assay: Direct effect on H22 liver cancer cells; assay type: cell-based; conditions: up to 100 μmol/L, 24 h
Protocol: Experimental method: HepG2 liver cancer cells and H22 liver cancer cells in a logarithmic growth phase each were selected and inoculated into a 96-well plate at a concentration of 1*10^5 cells/mL, and then 100 μL of a basic medium including SMI0 at different concentrations (0 μmol/L, 0.16 μmol/L, 0.8 μmol/L, 4 μmol/L, 20 μmol/L, and 100 μmol/L) was added to each well; and 24 h later, the proliferation activity of HepG2 was determined by a CCK8 method, a migration ability of HepG2 was determined by wound-healing assay, and an apoptosis ability of HepG2 was determined by flow cytometry (FCM).

CYP2E1 = molecular target: T1, CYP2E1 (Mus musculus, UniProt Q05421); assay: CYP2E1 activity (liver microsome) in in situ transplanted mouse glioma model; assay type: in vivo; conditions: SMI0 intervention group vs model group, P<0.001
T1 construct: from tissue; host or cells: liver microsomes of treated model mice (calcium precipitation)
T1 sequence (Q05421 whole entry): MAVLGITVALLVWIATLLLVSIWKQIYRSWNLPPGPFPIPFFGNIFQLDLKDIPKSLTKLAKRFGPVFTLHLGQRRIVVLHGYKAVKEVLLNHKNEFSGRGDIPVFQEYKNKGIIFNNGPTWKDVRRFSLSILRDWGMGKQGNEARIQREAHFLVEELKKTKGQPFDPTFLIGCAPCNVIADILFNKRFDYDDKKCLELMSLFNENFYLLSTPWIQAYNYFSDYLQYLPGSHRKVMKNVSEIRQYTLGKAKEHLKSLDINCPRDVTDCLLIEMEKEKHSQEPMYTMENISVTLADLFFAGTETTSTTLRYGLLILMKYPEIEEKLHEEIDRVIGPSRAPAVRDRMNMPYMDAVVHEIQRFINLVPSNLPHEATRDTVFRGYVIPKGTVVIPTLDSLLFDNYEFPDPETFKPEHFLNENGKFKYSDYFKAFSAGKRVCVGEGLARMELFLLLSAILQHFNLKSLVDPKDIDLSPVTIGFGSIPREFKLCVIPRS
Protocol: Experimental method: A calcium precipitation method was used to prepare a mouse liver microsome, and a Braford method was used to determine a protein concentration in the microsome. An incubation system was prepared with 2×PBS, a CZX solution, and the liver microsome at a final concentration of 0.5 mg/mL, and then pre-incubated at 37° C. for 5 min; NADPH was added to initiate a reaction, and a resulting mixture was incubated at 37° C. for 30 min and then placed on ice to terminate the reaction; and ethyl acetate was added to extract 6-hydroxychlorzoxazone, a resulting mixture was vortexed and centrifuged, and a resulting upper organic phase was collected and blow-dried with nitrogen. A peak area of a CZX metabolite 6-hydroxychlorzoxazone was detected by HPLC under the following conditions: methanol:water=56:44, and detection wavelength: 287 nm. A concentration A C of the metabolite 6-hydroxychlorzoxazone was calculated through substitution into a standard curve; and a reaction rate of conversion of CZX into 6-hydroxychlorzoxazone was calculated according to V(pmol/min/mg)=(ΔC*1000)/(B*T) to evaluate an enzymatic activity of CYP2E1, where B represents a protein concentration of the microsome (mg/mL) and T represents an incubation time (min). A correlation between CYP2E1 activity and tumor size in the mouse glioma model was analyzed.

[5] = SMI0 intervention group vs model group, P<0.01

CC(=O)c1scnc1C [SMI0]
glioma growth in mice ([1]; SMI0 intervention (3.3, 10, 30 mg/kg ig daily), about 21 days, vs model group): significantly inhibited | tumor proliferation inhibition rate ([1]; as high as, SMI0 high-dose group 30 mg/kg ig): 97.6% | lung index ([2]; SMI0 intervention group (30, 90 mg/kg ig daily, 28 d) vs model group): significantly reduced | immunostaining-positive area percentage of TGF-β 1 [2, 5]: significantly reduced | immunostaining-positive area percentage of α-SMA [2, 5]: significantly reduced | oxidative stress index CAT level in lung tissue [2, 5]: significantly increased | pathological inflammatory cell infiltration ([2]; SMI0 intervention group, 28 d): no obvious pathological inflammatory cell infiltration | Bcl-2 level ([2]; WB, SMI0 intervention group vs model group, P<0.001): significantly increased | Bax level ([2]; WB, SMI0 intervention group vs model group, P<0.01): significantly reduced | epithelial cell marker E-cadherin level ([2]; WB, SMI0 intervention group vs model group, P<0.05): significantly increased | inhibition rate on the cerebral edema volume ([3]; SMI0 150 mg/kg): 34.39% | inhibition rate on the cerebral infarction volume ([3]; SMI0 150 mg/kg): 36.06% | cerebral edema volume ([3]; SMI0 150 mg/kg ig 10 min before reperfusion, 24 h reperfusion, model group 19.25%): 12.63% | cerebral infarction volume ([3]; SMI0 150 mg/kg ig 10 min before reperfusion, 24 h reperfusion, model group 51.03%): 32.62% | inhibitory effect on GL261 (GL261 cells; 0 μM to 128 μM, 48 h): no significant inhibitory effect | effect on the proliferation of GL261 glioma cells (GL261 cells; up to 128 μmol/L or 200 μmol/L, CCK8): no significant inhibitory effect | lung weight ([4]; vs model group): significantly reduced | number of nodules ([4]; vs model group): significantly reduced | tumor proliferation inhibition rate ([4]; as high as): 66.7% | effect on the proliferation, migration, and apoptosis of H22 liver cancer cells (H22 liver cancer cells): no significant inhibitory effect | CYP2E1 activity (CYP2E1): significantly reduced
